# Tests used:
# [1] = physchem; settings: water
# [2] = Slurry in water at ambient temperature (XRPD); type: physicochemical; settings: 3 days
# [3] = Dynamic vapor sorption (DVS); type: physicochemical; settings: for Hysteresis: in % (unit assumed)
# Protocol: Moisture sorption/desorption data were collected on a Surface Measurement System DVS Intrinsic instrument. Samples were not dried prior to analysis. Sorption and desorption data were collected over a range from 5% to 95% RH to 5% RH at 10% RH increments under a nitrogen purge. The equilibrium criterion used for analysis was less than 0.0100% weight change in 5 minutes with a maximum equilibration time of 3 hours. Data were not corrected for the initial moisture content of the samples.
compound,measurement,setting,value
CN(C)C(=O)Nc1cc(Oc2cnc3nc(Nc4cc(C(F)(F)F)cn(C)c4=O)n(C)c3c2C#N)ccn1 [Form F],solubility,[1],< 1 mg/mL
same,solid form after slurry in water (XRPD),[2],converted completely to Form C
same,Desorp Mass Change (%),"[3]; DVS cycle 1, target RH 5%",−0.2589%
same,Sorp Mass Change (%),"[3]; DVS cycle 1, target RH 5%",0.0100%
same,Desorp Mass Change (%),"[3]; DVS cycle 1, target RH 15%",−0.2193%
same,Sorp Mass Change (%),"[3]; DVS cycle 1, target RH 15%",−0.0114%
same,Hysteresis,"[3]; DVS cycle 1, target RH 15%",−0.2079
same,Desorp Mass Change (%),"[3]; DVS cycle 1, target RH 25%",−0.1841%
same,Sorp Mass Change (%),"[3]; DVS cycle 1, target RH 25%",−0.0296%
same,Hysteresis,"[3]; DVS cycle 1, target RH 25%",−0.1545
same,Desorp Mass Change (%),"[3]; DVS cycle 1, target RH 35%",−0.1477%
same,Sorp Mass Change (%),"[3]; DVS cycle 1, target RH 35%",−0.0296%
same,Hysteresis,"[3]; DVS cycle 1, target RH 35%",−0.1181
same,Desorp Mass Change (%),"[3]; DVS cycle 1, target RH 45%",−0.1031%
same,Sorp Mass Change (%),"[3]; DVS cycle 1, target RH 45%",−0.0202%
same,Hysteresis,"[3]; DVS cycle 1, target RH 45%",−0.0829
same,Desorp Mass Change (%),"[3]; DVS cycle 1, target RH 55%",−0.0428%
same,Sorp Mass Change (%),"[3]; DVS cycle 1, target RH 55%",0.0018%
same,Hysteresis,"[3]; DVS cycle 1, target RH 55%",−0.0446
same,Desorp Mass Change (%),"[3]; DVS cycle 1, target RH 65%",0.0238%
same,Sorp Mass Change (%),"[3]; DVS cycle 1, target RH 65%",0.0282%
same,Hysteresis,"[3]; DVS cycle 1, target RH 65%",−0.0044
same,Desorp Mass Change (%),"[3]; DVS cycle 1, target RH 75%",0.0797%
same,Sorp Mass Change (%),"[3]; DVS cycle 1, target RH 75%",0.0741%
same,Hysteresis,"[3]; DVS cycle 1, target RH 75%",0.0057
same,Desorp Mass Change (%),"[3]; DVS cycle 1, target RH 85%",0.1545%
same,Sorp Mass Change (%),"[3]; DVS cycle 1, target RH 85%",0.1344%
same,Hysteresis,"[3]; DVS cycle 1, target RH 85%",0.0201
same,Desorp Mass Change (%),"[3]; DVS cycle 1, target RH 95%",0.2669%
same,Sorp Mass Change (%),"[3]; DVS cycle 1, target RH 95%",0.2669%
same,weight gain during sorption,"[3]; DVS, 5-95% RH",0.3%
same,weight loss during the desorption step,"[3]; DVS, 95-5% RH",0.5%
same,XRPD pattern of the post-DVS sample,[3]; after DVS experiment,consistent with Form F
same,hygroscopicity,[3]; judged from DVS sorption/desorption,non-hygroscopic

# Reference: patent publication US20240368157A1, “FORMS AND COMPOSITIONS OF A JAK2 INHIBITOR” (Ajax Therapeutics, Inc., priority 2023, published 2024)
